Data on twelve molecules can be found in ChEMBL document CHEMBL1201862, “PubChem BioAssay data set” (2004).

The source made the active and inactive calls.

Assay [1] is described as follows: Luminescence Cell-Based Dose Confirmation HTS to Identify Activators of 5'UTR Stem-Loop Driven Alpha-Synuclein mRNA Translation in H4 Neuroglioblastoma Cells. [Related pubchem assays: 1829 (Project Summary), 1814 (Primary HTS)]. Format: functional.
The test system of another assay is H4. Description: Luminescence Cell-Based Dose Response HTS to Identify Activators of 5'UTR Stem-Loop Driven Prion Protein mRNA Translation in H4 Neuroglioblastoma Cells. [Related pubchem assays: 1829 (Project Summary), 1814 (Primary HTS)]. It counts as functional. Conditions: Homo sapiens.
The nature of assay [2]: Luminescence Cell-Based Dose Response to Identify Activators of 5'UTR Stem-Loop Driven Prion Protein mRNA Translation in H4-C Neuroglioblastoma Cells. [Related pubchem assays: 1829 (Project Summary), 1814 (Primary HTS)]. It counts as functional.
Assay [3] is described as follows: Luminescence Cell-Based Dose Response to Identify Activators of Luciferase Translation or Activity in H4-C Neuroglioblastoma Cells. [Related pubchem assays: 1829 (Project Summary), 1814 (Primary HTS)]. Format: functional.
The nature of assay [4]: Luminescence Cell-Based Dose Response HTS to Identify Activators of Luciferase Translation or Activity in H4 […] Cells. [Related pubchem assays: 1829 (Project Summary), 1814 (Primary HTS)]. It counts as functional.
Assay [5] is described as follows: Luminescence Cell-Based Dose Confirmation to Identify Activators of 5'UTR Stem-Loop Driven Alpha-Synuclein mRNA Translation in H4 Neuroglioblastoma Cells. [Related pubchem assays: 1829 (Project Summary), 1814 (Primary HTS)]. It counts as functional.
In the next assay the target is T1, Protein Tat (Human immunodeficiency virus type 1 group M subtype B (isolate HXB2)(HIV-1), UniProt P04608).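 Also: tat binding to TAR RNA read out by fluorescence polarization.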
T1 sequence (P04608 whole entry): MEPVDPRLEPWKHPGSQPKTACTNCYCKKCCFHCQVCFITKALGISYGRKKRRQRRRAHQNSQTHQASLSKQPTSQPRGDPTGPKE
It counts as functional.

The subject of assay [6] is BJ. The experiment in a line: cytotoxicity toward BJ-TERT-LT-ST fibroblasts, dose response, cell-based, RAS-independent, luminescence (AID 1935).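 Also: BJ fibroblasts immortalized with TERT plus LT and ST oncogenes.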 It counts as functional. Conditions: Homo sapiens.
Assay [7] in a line: LGR2 antagonists, dose response, cell-based, HEK293, CRE-luciferase reporter, cherry pick, set 2 (AID 743343).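 Also: transfected cells were stimulated with diluted bursicon conditioned medium after compound addition.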 Format: functional. For orientation: In a reporter assay the amount or activity of a reporter protein is the signal.
The nature of assay [8]: HepG2 cell cytotoxicity, dose response, cytotoxicity control, plate reader, cherry-pick, antagonist series (AID 743416). It counts as functional, cell-based.
Assay [9] in a line: HEK293 cell cytotoxicity, dose response, cytotoxicity control, plate reader, cherry-picked samples (AID 743446). It counts as functional, cell-based.
Assay [10] in a line: A549 cell cytotoxicity, dose response, cytotoxicity control, plate reader, cherry-pick, antagonist series (AID 743412). Format: functional, cell-based.
Assay [11] relates to BJ. Description: cytotoxicity toward BJ-TERT fibroblasts, dose response, cell-based, RAS-independent, luminescence (AID 1933). Format: functional. Conditions: Homo sapiens.
Assay [12] deals with Luciferin 4-monooxygenase (Photinus pyralis, UniProt P08659). The experiment in a line: firefly luciferase enzyme inhibitors, dose response, biochemical, luminescence (AID 1891).
Sequence of Luciferin 4-monooxygenase (P08659 whole entry): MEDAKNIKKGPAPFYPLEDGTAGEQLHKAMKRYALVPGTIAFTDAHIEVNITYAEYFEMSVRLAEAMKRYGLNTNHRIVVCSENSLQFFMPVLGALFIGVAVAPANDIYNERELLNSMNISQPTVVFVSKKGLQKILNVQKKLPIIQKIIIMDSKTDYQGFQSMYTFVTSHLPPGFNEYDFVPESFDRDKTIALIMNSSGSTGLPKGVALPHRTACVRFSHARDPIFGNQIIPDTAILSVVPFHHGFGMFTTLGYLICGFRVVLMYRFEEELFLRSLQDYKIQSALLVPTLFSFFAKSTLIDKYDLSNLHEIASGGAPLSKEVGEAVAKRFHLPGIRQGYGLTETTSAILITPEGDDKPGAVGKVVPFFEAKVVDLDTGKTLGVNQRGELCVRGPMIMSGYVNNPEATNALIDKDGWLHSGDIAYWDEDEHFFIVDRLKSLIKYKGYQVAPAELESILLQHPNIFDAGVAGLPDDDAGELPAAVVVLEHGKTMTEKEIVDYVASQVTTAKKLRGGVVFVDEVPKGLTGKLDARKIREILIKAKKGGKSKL
A short description of assay [13]: Luminescence Cell-Based Dose Confirmation HTS to Identify Inhibitors of Platelet Dense Granule Release. [Related pubchem assays: 1663 (Primary HTS), 1678 (Summary of Project)]. Format: functional.
The next assay has as its target T2, Protein skinhead-1 (Caenorhabditis elegans, UniProt P34707).
T2 sequence (P34707 whole entry): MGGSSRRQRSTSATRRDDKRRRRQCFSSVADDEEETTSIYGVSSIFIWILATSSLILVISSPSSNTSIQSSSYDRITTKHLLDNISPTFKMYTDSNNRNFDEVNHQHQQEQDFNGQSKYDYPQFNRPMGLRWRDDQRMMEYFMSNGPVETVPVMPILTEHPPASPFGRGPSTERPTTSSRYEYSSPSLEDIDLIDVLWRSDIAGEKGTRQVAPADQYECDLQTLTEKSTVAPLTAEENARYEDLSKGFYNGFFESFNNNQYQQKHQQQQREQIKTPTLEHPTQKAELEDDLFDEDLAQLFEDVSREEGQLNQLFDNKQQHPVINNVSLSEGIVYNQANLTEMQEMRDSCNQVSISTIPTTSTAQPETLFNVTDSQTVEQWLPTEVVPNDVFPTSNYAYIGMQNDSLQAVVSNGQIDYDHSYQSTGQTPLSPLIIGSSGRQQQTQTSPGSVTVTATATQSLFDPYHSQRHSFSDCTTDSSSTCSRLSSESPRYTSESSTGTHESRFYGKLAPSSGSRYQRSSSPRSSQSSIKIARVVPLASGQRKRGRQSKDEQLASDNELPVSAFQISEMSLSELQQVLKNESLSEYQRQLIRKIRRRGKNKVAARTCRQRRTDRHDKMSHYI
Format: functional.

Assay [14] deals with BJ. Description: cells. Conditions: Homo sapiens. Format: functional, cell-based.
Assay [15] is described as follows: cytotoxicity toward DRD oncogenic fibroblasts, dose response, cell-based, non-viral oncogenic, luminescence (AID 1934). It counts as functional. Conditions: Homo sapiens.
Assay [16] in a line: MC4R antagonists, dose response, counter-screen for LGR2 antagonist project, cell-based, plate reader, cherry pick (AID 743444).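 Also: transfected HEK 293 cells stimulated with alpha-MSH peptide; potency of inhibitors of the alpha-MSH evoked signal.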 It counts as functional. For orientation: The purpose of a counterscreen is to sort out artefacts and off-target activity.
Assay [17] is described as follows: control 3'UTR Renilla luciferase suppression, dose response, counter-screen for Shn3 inhibitor project, cell-based, Clone20-Shn3RL, cherry-picked (AID 624133). It counts as functional.
Assay [18] is described as follows: HepG2 cell cytotoxicity, dose response, cytotoxicity control for Shn3 inhibitor project, CellTiter-Glo, cherry-picked (AID 624134). It counts as functional, cell-based. (In ATP-based viability assays light output follows the ATP content of the culture.)
Assay [19] can be described thus: Shn3 3'UTR reporter inhibitors, dose response, cell-based, Clone20 osteoblasts, firefly luciferase, cherry-picked (AID 624132).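 Also: firefly luciferase luminescence from reporter carrying the Shn3 3'UTR in osteoblasts.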 It counts as functional.
In the next assay the target is Paired box protein Pax-8 (Homo sapiens, UniProt Q06710). Description: inhibitors of PAX8-driven TPO luciferase reporter, dose response, RMG-I cells, cherry-pick (AID 687027).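 Also: luciferase reporter driven by Pax8 target thyroperoxidase promoter measured by SteadyGlo luminescence.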 Format: functional, cell-based.
Sequence of Paired box protein Pax-8 (Q06710 whole entry): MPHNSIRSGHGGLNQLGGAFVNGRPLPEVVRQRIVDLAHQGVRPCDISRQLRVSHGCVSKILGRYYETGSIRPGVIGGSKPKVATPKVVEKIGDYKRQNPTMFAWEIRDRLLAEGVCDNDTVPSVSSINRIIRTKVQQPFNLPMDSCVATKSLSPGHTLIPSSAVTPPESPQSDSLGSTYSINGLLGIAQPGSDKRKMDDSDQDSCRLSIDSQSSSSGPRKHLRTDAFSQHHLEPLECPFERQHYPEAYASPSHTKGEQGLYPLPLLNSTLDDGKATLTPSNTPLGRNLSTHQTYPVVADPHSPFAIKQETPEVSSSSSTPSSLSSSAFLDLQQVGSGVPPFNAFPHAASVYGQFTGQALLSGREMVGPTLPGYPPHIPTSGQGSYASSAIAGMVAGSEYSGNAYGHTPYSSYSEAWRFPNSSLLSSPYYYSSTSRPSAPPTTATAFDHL
The nature of assay [20]: IGROV1 ovarian cancer cell cytotoxicity, dose response, PAX8 inhibitor project, plate reader, dry powder samples (AID 743043). Conditions: IGROV-1. Format: functional, cell-based.
The nature of assay [21]: NIH:OVCAR-3 ovarian cancer cell cytotoxicity, dose response, PAX8 inhibitor project, plate reader, dry powder samples (AID 743044). Format: functional, cell-based.
Assay [22] can be described thus: cytotoxicity in OVCAR8 ovarian cancer cells, dose response, PAX8 project, cell-based, plate reader, dry powder samples (AID 743197). Format: functional. Conditions: OVCAR-8.
Assay [23] has as its target T3, Bifunctional protein GlmU (Mycobacterium tuberculosis, UniProt P9WMN3).
T3 sequence (P9WMN3 whole entry): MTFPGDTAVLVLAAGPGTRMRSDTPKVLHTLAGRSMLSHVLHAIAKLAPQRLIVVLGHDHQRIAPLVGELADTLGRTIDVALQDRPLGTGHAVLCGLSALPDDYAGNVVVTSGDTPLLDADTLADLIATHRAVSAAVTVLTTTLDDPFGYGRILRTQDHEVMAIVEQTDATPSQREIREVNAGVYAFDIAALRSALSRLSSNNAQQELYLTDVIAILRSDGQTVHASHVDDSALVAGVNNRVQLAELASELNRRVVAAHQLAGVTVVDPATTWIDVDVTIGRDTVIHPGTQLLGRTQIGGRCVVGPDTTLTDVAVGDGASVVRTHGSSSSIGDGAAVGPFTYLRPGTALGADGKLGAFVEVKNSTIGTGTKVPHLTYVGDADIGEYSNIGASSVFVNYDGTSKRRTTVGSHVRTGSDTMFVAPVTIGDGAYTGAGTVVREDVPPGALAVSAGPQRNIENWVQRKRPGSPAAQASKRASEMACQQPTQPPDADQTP
The experiment in a line: Inhibitors of Mycobacterial Glucosamine-1-phosphate acetyl transferase (GlmU). Secondary screen. The arrangement: species or system Mycobacterium tuberculosis H37Rv.

Assay [24] is described as follows: Dose-response inhibition of insulin secretion in a rat insulinoma line at 5 mM glucose (AID 1117331). Format: functional, cell-based. The conditions noted are these: INS-1E.
Assay [25] in a line: Glucagon-like peptide 1 release potency, NCI-H716 cell line, dose-response, half-maximal inhibitory concentration (AID 1117344). It counts as functional, cell-based.
Assay [26] in a line: half-maximal inhibitory concentration for glucagon-like peptide-1 release, STC-1 cell line, dose-response (AID 1117345). It counts as functional, cell-based.
The next assay concerns the target Cytochrome P450 2C9 (Homo sapiens, UniProt P11712).

Sequence of Cytochrome P450 2C9 (P11712 whole entry): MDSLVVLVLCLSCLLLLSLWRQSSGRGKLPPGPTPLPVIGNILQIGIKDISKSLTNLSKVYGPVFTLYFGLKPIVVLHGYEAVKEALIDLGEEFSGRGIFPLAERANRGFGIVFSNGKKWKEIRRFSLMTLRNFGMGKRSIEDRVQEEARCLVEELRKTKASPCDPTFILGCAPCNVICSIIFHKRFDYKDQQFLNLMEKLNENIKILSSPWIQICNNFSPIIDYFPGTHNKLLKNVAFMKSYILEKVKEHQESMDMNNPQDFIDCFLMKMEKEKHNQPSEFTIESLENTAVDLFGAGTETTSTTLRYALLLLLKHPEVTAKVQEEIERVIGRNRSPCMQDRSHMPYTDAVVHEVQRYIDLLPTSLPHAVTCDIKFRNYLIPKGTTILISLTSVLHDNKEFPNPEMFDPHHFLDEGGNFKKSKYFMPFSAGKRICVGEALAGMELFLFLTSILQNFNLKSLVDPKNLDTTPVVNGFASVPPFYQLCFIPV

For orientation: EC50 means the concentration at which the effect is half-maximal. Take `O=C(CSc1nnnn1C1CCCC1)N1CCCCC1`: the EC50 was 0.118 µM (active) in assay [1]; > 120 µM (not active) in the assay with H4; 0.537 µM (active) in assay [2]; 0.57 µM (active) in assay [3]; < 0.1 µM (active) in assay [4]; 0.524 µM (active) in [5].

A word on the IC50: it is the point on the concentration scale where inhibition reaches its midpoint. `COc1ccc2cc(C3C(C#N)=C(N)OC(C)=C3C(C)=O)c(Cl)nc2c1` (stereo not given): on Protein Tat, the IC50 is > 100 µM (active).

As to `O=C(NC1CCCCCCC1)NC1CCCCC1`, the half-maximal effective concentration (EC50) in the assay with H4 is > 120 µM (not active); in [2], 1.84 µM (active); in [3] it was 1.12 µM (active); in [4] it was 5.81 µM (active); in assay [5], > 12 µM (not active).

As to `CC(=O)c1cnc2cc(-c3ccc(C)cc3)nn2c1C`, the half-maximal effective concentration (EC50) in [2] was 0.223 µM (active); in [3], 0.319 µM (active); in assay [4], < 0.1 µM (active); in assay [5], 0.297 µM (active).

As a reminder, the AC50 is the midpoint of the concentration-response curve, whichever way the signal moves. Consider `CCCSc1ccc2nc(-c3ccccc3)cn2c1`, for which the EC50 was > 150 µM (not active) in the assay on BJ [6]; 22.8 µM (active) in the assay on BJ [11]; 0.709 µM (active) in [12]; 2.14 µM (active) in assay [13]; 19.6 µM (active) in the assay with BJ [14]; 20.9 µM (active) in [15]. Also, the half-maximal activity concentration (AC50) in assay [7] was 0.951 µM (active); in assay [8], 20.7 µM (active); in assay [9], 39.5 µM (active); in assay [10], 39.3 µM (active); in [16], 1.2 µM (active). For the same molecule, at Protein skinhead-1, the IC50 is > 100 µM (inactive).

`CCN1CCN(C(=O)CN(C)S(=O)(=O)c2ccc(OC)c(C)c2)CC1`: the concentration for half-maximal inhibition (IC50) on Protein Tat was > 100 µM (active).

Regarding `CCCCNc1c(-c2cccc(-c3ccc(OC)cc3)c2)nc2cc(C)ccn12`, the concentration at half-maximal activity (AC50) was 8.28 µM (active) in [7]; 21.9 µM (active) in [8]; 14.5 µM (active) in assay [9]; 17.7 µM (active) in [10]; 10.6 µM (active) in assay [17]; 38.9 µM (active) in assay [18]. In addition, the AC50 in assay [19] was 12.1 µM (active); in assay [16], 10.9 µM (active).

For `C[C@@H]1CCCCO[C@@H](CN(C)Cc2ccc(C(F)(F)F)cc2)[C@@H](C)CN([C@@H](C)CO)C(=O)c2cc(NS(=O)(=O)c3ccc(Cl)cc3)ccc2O1`, the concentration at half-maximal activity (AC50) on Paired box protein Pax-8 is 7.31 µM (active); in assay [20] it was 53.5 µM (active); in assay [21] it was 27.4 µM (active); in assay [22], 43.7 µM (active).

As to `N#C/C(=C\c1ccc(-c2ccc(C(=O)O)cc2)o1)c1nc2ccccc2[nH]1`, the IC50 in assay [23] was 51.3 µM (active).

`Fc1cc(Br)ccc1CBr`: the IC50 in [24] was > 33.3 µM (inactive); in assay [25], > 40 µM (inactive); in assay [26] it was > 40 µM (inactive).

Turning to `COc1ccc2c(c1)C(=O)N(CCc1ccc(S(=O)(=O)NC(=O)NC3CCCCC3)cc1)C(=O)C2(C)C` [GLIQUIDONE], the IC50 in [24] is 0.23 µM (active). For the same molecule, the AC50 on Cytochrome P450 2C9 is 12.6 µM (inconclusive).

On to `FC(F)(F)C(F)(F)C(F)(F)C(F)(F)C(F)(F)C(F)(F)C(F)(F)C(F)(F)Br` [PERFLUBRON], for which the IC50 in assay [24] is > 33.3 µM (inactive); in [25], > 40 µM (inactive); in assay [26], > 40 µM (inactive).
